Experimental data reported in PubChem BioAssay (NCI).
“And” between values parts separate entries of the source, which are not always exact repeats. Equal entries are not always repeated.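 Five concentrations, 48 hours, 96-well plates. The concentration for 50% growth inhibition is given as GI50. The concentration for full growth arrest is given as TGI.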

Experiments:
Experiment in all cases: NCI tumour cell line growth inhibition, 48 h
[1] = test system: OVCAR-8 ovarian
[2] = test system: MOLT-4 leukemia
[3] = test system: NCI/ADR-RES ovarian
[4] = test system: OVCAR-5 ovarian
[5] = test system: COLO 205 colon
[6] = test system: DLD-1 colon
[7] = test system: SK-OV-3 ovarian
[8] = test system: UO-31 renal
[9] = test system: CCRF-CEM leukemia

N#C/C(=C\c1cc(O)c(O)c(O)c1)C(N)=O
TGI [1]: > 100 µM
TGI [2]: > 100 µM
TGI [3]: > 100 µM
TGI [4]: > 100 µM
TGI [5]: > 100 µM
TGI [6]: > 100 µM
TGI [7]: > 100 µM
TGI [8]: > 100 µM
TGI [9]: > 76.2 µM

CC1(C)C(N2CCOCC2)CS1(=O)=O (stereo not drawn)
TGI [1]: > 10 µM
TGI [2]: > 10 µM
TGI [3]: > 10 µM
TGI [4]: > 10 µM
TGI [5]: > 10 µM
TGI [7]: > 10 µM
TGI [8]: > 10 µM
TGI [9]: > 10 µM

C=CCn1c2ccccc2c2c3c(c4c5ccccc5n(CC=C)c4c21)C(=O)N(O)C3=O
GI50 [1]: 4.41 µM
TGI [1]: 28.3 µM
GI50 [2]: 1.02 µM
TGI [2]: 5.12 µM
GI50 [3]: 3.43 µM
TGI [3]: 21.9 µM
GI50 [4]: 5.29 µM
TGI [4]: 29.6 µM
GI50 [5]: 2.01 µM
TGI [5]: 9.31 µM
GI50 [7]: 3.22 µM
TGI [7]: > 100 µM
GI50 [8]: 1.75 µM
TGI [8]: 5 µM
GI50 [9]: 0.971 µM
TGI [9]: 7.1 µM

Cc1cc(O)ccc1C1=NN(c2ccc(S(N)(=O)=O)cc2)C(=O)CC1
GI50 [1]: 15.4 µM and 46.2 µM
TGI [1]: 50 µM and > 100 µM
GI50 [2]: 2.67 µM and 6.09 µM
TGI [2]: 50 µM and > 100 µM
GI50 [3]: 2.36 µM and 3.9 µM
TGI [3]: 50 µM and 30 µM
GI50 [4]: > 100 µM
TGI [4]: > 100 µM
GI50 [5]: 8.8 µM and 36.6 µM
TGI [5]: 50 µM and > 100 µM
GI50 [7]: 10.8 µM and 51.7 µM
TGI [7]: 50 µM and > 100 µM
GI50 [8]: 18.1 µM and 35.1 µM
TGI [8]: 50 µM and > 100 µM
GI50 [9]: 9.88 µM and 10.5 µM
TGI [9]: 50 µM and > 100 µM

Cc1ccc(C[As+](c2ccccc2)(c2ccccc2)c2ccccc2)cc1
GI50 [1]: 0.599 µM
TGI [1]: 15.3 µM
GI50 [2]: 2.41 µM
TGI [2]: 13.6 µM
GI50 [3]: 49.1 µM
TGI [3]: > 100 µM
GI50 [4]: 1.74 µM
TGI [4]: > 87.2 µM
GI50 [5]: 0.412 µM
TGI [5]: 2.45 µM
GI50 [7]: 1.82 µM
TGI [7]: > 23.5 µM
GI50 [8]: 12.4 µM
TGI [8]: 97.4 µM
GI50 [9]: 1.08 µM
TGI [9]: 55 µM

COC(=O)[C@H](Cc1cn(C)cn1)NC(=O)[C@H](CC(=O)OCc1ccccc1)NC(=O)Nc1cc(C(F)(F)F)cc(C(F)(F)F)c1
GI50 [1]: 4.49 µM
TGI [1]: 16.9 µM
GI50 [2]: 17.1 µM
TGI [2]: 36.6 µM
GI50 [3]: 17.3 µM
TGI [3]: 35.6 µM
GI50 [4]: 17.2 µM
TGI [4]: 34.2 µM
GI50 [5]: 3.79 µM
TGI [5]: 13.8 µM
GI50 [7]: 9.07 µM
TGI [7]: 21.4 µM
GI50 [8]: 11.5 µM
TGI [8]: 24.2 µM
GI50 [9]: 9.81 µM
TGI [9]: 24.7 µM

COc1cc(-c2nn(-c3ccc(NC(=O)Nc4cc(C(F)(F)F)cc(C(F)(F)F)c4)cc3)cc2-c2ccncc2)ccc1Cl
GI50 [1]: 2.48 µM
TGI [1]: 27.8 µM
GI50 [2]: 3.28 µM
TGI [2]: > 100 µM
GI50 [3]: 2 µM
TGI [3]: 7.38 µM
GI50 [4]: 1.91 µM
TGI [4]: 5.16 µM
GI50 [5]: 1.6 µM
TGI [5]: 3.32 µM
GI50 [7]: 1.55 µM
TGI [7]: 3.09 µM
GI50 [8]: 1.34 µM
TGI [8]: 3.22 µM
GI50 [9]: 2.13 µM
TGI [9]: > 100 µM

O=C(/C=C/c1ccccc1)c1cccc2ccccc12
GI50 [1]: 1.82 µM
TGI [1]: 3.97 µM
GI50 [2]: 1.43 µM
TGI [2]: 5.68 µM
GI50 [3]: 3.27 µM
TGI [3]: 19.6 µM
GI50 [4]: 3.78 µM
TGI [4]: 17.4 µM
GI50 [5]: 5.51 µM
TGI [5]: 18.2 µM
GI50 [7]: 3.11 µM
TGI [7]: 11.3 µM
GI50 [8]: 2.68 µM
TGI [8]: 12.6 µM
GI50 [9]: 2.71 µM
TGI [9]: 17.8 µM
